Counter-ions that a name gives are not always drawn.
Tested on: collagen production induced by TGF-β (NHDF cells)
Assay: Inhibitory effect on collagen production induced by TGF-β, [3H] proline uptake (NHDF cells)
Type: cell-based, human
Details: TGF-β1 3 ng/ml; for inhibition at 1 µM / inhibition at 3 µM / inhibition at 10 µM: Homo sapiens, NHDF
Description: As an index of collagen production, the uptake of [^3H] proline was measured.
Using a 96-well microplate, normal human skin derived fibroblast (NHDF, 10^4/well) or human embryonic lung fibroblast (TIG-3, 10^4/well) were cultured in a 10% fetal calf serum (FCS)-containing Dulbecco's modified Eagle medium (DMEM) for one day. After removing the culture supernatant, the cells were washed once with a 0.1% bovine serum albumin (BSA)-containing DMEM medium and then cultured in the 0.1% bovine serum albumin (BSA)-containing DMEM medium for one day. After adding each of the test compounds in each concentration (1, 3, 10 μM), the cells were cultured and, after adding TGF-β1 (3 ng/ml) and [^3H] proline (18.5 kBq/well), the cells were further cultured for additional one day.
After removing the culture supernatant, the cells were washed twice with a phosphate buffer solution (PBS) and dissolved with 0.3M NaOH and 1% sodium dodecylsulfate (SDS), and then each protein fraction was precipitated with trichloroacetic acid (TCA) After the precipitate was filtered through a glass filter (GF/B) and washed, the quantity of [^3H] proline on the glass filter was measured by a liquid scintillation counter. The number of cells was measured by a cell growth measuring kit (XTT, Roche) and the uptake of [^3H] proline was corrected by the number of cells. Inhibitory ratio was calculated as compared with the case where a difference between the uptake of [^3H] proline with or without TGF-β1.

COC(=O)c1ccc(-c2c(/C=C/C(=O)N3CCc4cc(OC)c(OC)cc4C3)c3cc(C)ccc3n2C)cc1 [Example 142, 2-{(2E)-3-[1,5-dimethyl-2-(4-carbomethoxyphenyl)-1H-indol-3-yl]prop-2-enoyl}-6,7-dimethoxy-1,2,3,4-tetrahydroisoquinoline]
inhibition at 1 µM (1 μM): 65% | inhibition at 3 µM (3 μM): 130%

CC(=O)C1(c2ccccc2)CCN(C(=O)C=Cc2c(-c3ccc(C(=O)O)cc3)n(C)c3ccc(C)cc23)CC1 [Example 146, 4-{3-[3-(4-acetyl-4-phenylpiperidin-1-yl)-3-oxo-1-propenyl]-1,5-dimethyl-1H-indol-2-yl}benzoic acid]
inhibition at 1 µM (1 μM): 43% | inhibition at 3 µM (3 μM): 60%

CCOC(=O)C1CCCC1NC(=O)c1cnc(N2CCN(C(=O)c3c(-c4ccccc4)n(C)c4ccc(C)cc34)CC2)cn1 (centres unmarked) [Example 129, Ethyl 2-{N-[(5-{4-[(1,5-dimethyl-2-phenyl-1H-indol-3-yl)carbonyl]piperazin-1-yl}pyrazin-2-yl)carbonyl]amino}-1-cyclopentanecarboxylate]
inhibition at 1 µM (1 μM): 75% | inhibition at 3 µM (3 μM): 73%

COc1ccc(CCN(C)C(=O)/C=C/c2c(-c3ccc4c(c3)OCO4)n(C)c3ccccc23)cc1OC [Example 115, (2E)-N-methyl-N-[2-(3,4-dimethoxyphenyl)ethyl]-3-[1-methyl-2-(3,4-methylenedioxyphenyl)-1H-indol-3-yl]acrylamide]
inhibition at 3 µM (3 μM): 84% | inhibition at 10 µM (10 μM): 155%

COc1cc2c(cc1OC)CN(C(=O)/C=C/c1c(-c3ccc(F)cc3)n(C)c3ncccc13)CC2 [Example 140, 2-{(2E)-3-[1-methyl-2-(4-fluorophenyl)-1H-pyrrolo[2,3-b]pyridin-3-yl]prop-2-enoyl}-6,7-dimethoxy-1,2,3,4-tetrahydroisoquinoline hydrochloride]
inhibition at 1 µM (1 μM): 140% | inhibition at 3 µM (3 μM): 171%

COc1cc2c(cc1OC)CN(C(=O)/C=C/c1c(-c3ccccc3)n(C)c3ncc(C)cc13)CC2 [Example 123, 2-[(2E)-3-(1,5-dimethyl-2-phenyl-1H-pyrrolo[2,3-b]pyridin-3-yl)prop-2-enoyl]-6,7-dimethoxy-1,2,3,4-tetrahydroisoquinoline hydrochloride]
inhibition at 1 µM (1 μM): 55% | inhibition at 3 µM (3 μM): 125%

COc1cc2c(cc1OC)C(CC(=O)O)N(C(=O)/C=C/c1c(-c3ccccc3)n(C)c3ncccc13)CC2.Cl (centres unmarked) [Example 134, {6,7-dimethoxy-2-[(2E)-3-(1-methyl-2-phenyl-1H-pyrrolo[2,3-b]pyridin-3-yl)prop-2-enoyl]-1,2,3,4-tetrahydroisoquinolin-1-yl}acetic acid hydrochloride]
Inhibitory effect on collagen production induced by TGF-β (% inhibition) (1 μM): 90% | Inhibitory effect on collagen production induced by TGF-β (% inhibition) (3 μM): 111%

CN(CCC(O)c1ccccc1)C(=O)/C=C/c1c(-c2ccc(F)cc2)n(C)c2ccccc12 (centres unmarked) [Example 110, (2E)-N-methyl-N-(3-hydroxy-3-phenylpropyl)-3-[1-methyl-2-(4-fluorophenyl)-1H-indol-3-yl]acrylamide]
inhibition at 3 µM (3 μM): 66% | inhibition at 10 µM (10 μM): 143%

CCOC(=O)C1CCCCC1NC(=O)c1cnc(N2CCN(C(=O)c3c(-c4ccccc4)n(C)c4ccc(C)cc34)CC2)cn1 (centres unmarked) [Example 127, Ethyl 2-{N-[(5-{4-[(1,5-dimethyl-2-phenyl-1H-indol-3-yl)carbonyl]piperazin-1-yl}pyrazin-2-yl)carbonyl]amino}-1-cyclohexanecarboxylate]
inhibition at 1 µM (1 μM): 72% | inhibition at 3 µM (3 μM): 78%

COc1cccc2c(/C=C/C(=O)N(C)CCC(O)c3ccccc3)c(-c3ccccc3)n(C)c12 (centres unmarked) [Example 111, (2E)-N-methyl-N-(3-hydroxy-3-phenylpropyl)-3-(1-methyl-2-phenyl-7-methoxy-1H-indol-3-yl)acrylamide]
inhibition at 3 µM (3 μM): 82% | inhibition at 10 µM (10 μM): 168%

Cc1cnc2c(c1)c(C(=O)N1CCN(c3cnc(C(=O)NCCc4scnc4C)cn3)CC1)c(-c1ccccc1)n2C [Example 148, 5-{4-[(1,5-dimethyl-2-phenyl-1H-pyrrolo[2,3-b]pyridin-3-yl)carbonyl]piperazin-1-yl}-N-[2-(4-methyl-1,3-thiazol-5-yl)ethyl]pyrazine-2-carboxamide trihydrochloride]
inhibition at 1 µM (1 μM): 29% | inhibition at 3 µM (3 μM): 53%

COc1cc2c(cc1OC)CN(C(=O)/C=C/c1c(-c3ccncc3)n(C)c3ncccc13)CC2 [Example 135, 2-{(2E)-3-[1-methyl-2-(4-pyridyl)-1H-pyrrolo[2,3-b]pyridin-3-yl]prop-2-enoyl}-6,7-dimethoxy-1,2,3,4-tetrahydroisoquinoline dihydrochloride]
inhibition at 1 µM (1 μM): 78% | inhibition at 3 µM (3 μM): 110%

Cn1c(-c2ccc3c(c2)OCO3)c(/C=C/C(=O)N(CCCCO)Cc2ccccc2)c2ccccc21 [Example 116, (2E)-N-(4-hydroxybutyl)-N-benzyl-3-[1-methyl-2-(3,4-methylenedioxyphenyl)-1H-indol-3-yl]acrylamide]
inhibition at 3 µM (3 μM): 76% | inhibition at 10 µM (10 μM): 168%

CC1c2cc(O)c(O)cc2CCN1C(=O)/C=C/c1c(-c2ccccc2)n(C)c2cc3c(cc12)OCO3 (centres unmarked) [Example 117, 2-{(2E)-3-[1-methyl-2-phenyl-(5,6-methylenedioxy)-1H-indol-3-yl]prop-2-enoyl}-1-methyl-6,7-dihydroxy-1,2,3,4-tetrahydroisoquinoline]
Inhibitory effect on collagen production induced by TGF-β (% inhibition) (3 μM): 82% | Inhibitory effect on collagen production induced by TGF-β (% inhibition) (10 μM): 140%

CN1CCC(N(C)C(=O)/C=C/c2c(-c3ccccc3)n(C)c3ncccc23)CC1 [Example 122, (2E)-N-methyl-N-(1-methyl-piperidin-4-yl)-3-(1-methyl-2-phenyl-1H-pyrrolo[2,3-b]pyridin-3-yl)acrylamide]
inhibition at 1 µM (1 μM): 20% | inhibition at 3 µM (3 μM): 57%

Cn1c(-c2ccccc2)c(/C=C/C(=O)N[C@@H]2c3ccccc3C[C@@H]2O)c2cc3c(cc21)OCO3 [Example 97, (2E)-N-[(1R, 2S)-2-hydroxy-2,3-dihydro-1H-inden-1-yl]-3-(1-methyl-2-phenyl-5,6-methylenedioxy-1H-indol-3-yl)acrylamide]
inhibition at 1 µM (1 μM): 37% | inhibition at 3 µM (3 μM): 69%

Cc1ccc2c(c1)c(C(=O)N1CCN(c3cnc(C(=O)N(C)[C@@H](Cc4ccccc4)C(=O)O)cn3)CC1)c(-c1ccccc1)n2C [Example 132, N-methyl-N-[(5-{4-[(1,5-dimethyl-2-phenyl-1H-indol-3-yl)carbonyl]piperazin-1-yl}pyrazin-2-yl)carbonyl]-(S)-phenylalanine]
inhibition at 1 µM (1 μM): 67% | inhibition at 3 µM (3 μM): 122%

CC(=O)OCCN(Cc1ccccc1)C(=O)c1cnc(N2CCN(C(=O)c3c(-c4ccccc4)n(C)c4ccc(C)cc34)CC2)cn1 [Example 125, N-benzyl-N-[(5-{4-[(1,5-dimethyl-2-phenyl-1H-indol-3-yl)carbonyl]piperazin-1-yl}pyrazin-2-yl)carbonyl]aminoethyl acetate]
inhibition at 1 µM (1 μM): 52% | inhibition at 3 µM (3 μM): 91%

COc1cccc(-c2c(/C=C/C(=O)N(C)CCC(O)c3ccccc3)c3ccccc3n2C)c1 (centres unmarked) [Example 118, (2E)-N-methyl-N-(3-hydroxy-3-phenylpropyl)-3-[1-methyl-2-(3-methoxyphenyl)-1H-indol-3-yl]acrylamide]
inhibition at 3 µM (3 μM): 81% | inhibition at 10 µM (10 μM): 147%

Source: patent US20050014942A1, “Amide derivatives and drugs” (priority 2001, published 2005)
